Test results taken from US5731326A, “PDGF antagonists II” (ZymoGenetics, Inc., priority 1996, dated 1998).
Read-outs that look alike come from different tables or passages of the source.

Target: T1, cell-surface PDGF receptors (Rattus norvegicus, UniProt Q05030)
T1 construct: endogenous in cells; host or cells: rat smooth muscle cells (SMCs), monolayer culture
Experiment: Inhibition of 125I-PDGF-BB binding to rat SMCs in the presence and absence of human serum
Settings: for CPM Bound, Binding Media + 10% Human Serum / CPM Bound, Binding Media: total CPM bound; for CPM Bound, Binding Media + 10% Human Serum: neg. control 1152; for CPM Bound, Binding Media: neg. control 1990
Procedure: NNC92-0270 was analyzed for the ability to inhibit ^125 I-PDGF-BB binding to monolayers of rat SMCs. To assay for inhibition of ^125 I-PDGF-BB binding to rat SMCs, the SMCs were plated at approximately 20,000 cells/well in 24-well culture dishes. The cells were used for assay 2-7 days after plating. The test compound was diluted in binding media (500 ml Ham's F-12 (Gibco BRL), 12 ml 1M Hepes pH 7.4, 5 ml 100×PSN (Gibco BRL), 1 gm rabbit serum albumin (Sigma Chemical Co., St. Louis, Mo.) to the concentrations shown in Table 2, then added to the SMCs (1 ml/well) in triplicate. To the wells was then added 50 μl of a ^125 I-PDGF-BB stock solution. Binding media alone was used as the negative control, and the addition of 200 ng/ml of PDGF-BB was used to determine nonspecific binding for ^125 I-PDGF-BB. The cells were incubated for approximately 11/2 hours at 4° C., then washed with binding media to remove unbound ligand. The cells were then incubated with extraction buffer (20 mM Tris-HCl, pH 8.0, 100 mM NaCl, 1 mM EDTA, 0.5% Nonident P-40, 0.5% sodium deoxycholate, 10 mM NaI, 1% bovine serum albumin), and the extracts were harvested and counted in a gamma counter. The data are presented as specific cpm bound for ^125 I-PDGF-BB. Nonspecific binding, determined by the addition of 200 ng/ml of unlabeled PDGF-BB, was 853 cpm, and has been subtracted from the data presented.
NNC92-0270 was subsequently analyzed for its ability to inhibit ^125 I-PDGF-BB binding to rat SMCs when the radioligand was added to the cells in the presence of 10% human serum. The rat SMCs were plated into 24-well culture dishes and assayed as described above. The test compound was diluted to the concentrations shown in Table 3 in either binding media alone, or binding media containing 10% human serum, and 1 ml aliquots added to the test cells in triplicate. Fifty microliters of a 20×stock solution of ^125 I-PDGF-BB was added to each well. The cells were incubated for 2.5 hours at 4 ° C., washed with binding media to remove unbound ligand, and harvested with extraction buffer. The extracts were then counted in a gamma counter to determine CPM bound. […] It should be noted that the binding of ^125 I-PDGF-BB was lower in the negative control sample containing the human serum, over the negative control sample with binding media alone. The results are presented as total CPM bound.

T1 sequence (Q05030 32-1097): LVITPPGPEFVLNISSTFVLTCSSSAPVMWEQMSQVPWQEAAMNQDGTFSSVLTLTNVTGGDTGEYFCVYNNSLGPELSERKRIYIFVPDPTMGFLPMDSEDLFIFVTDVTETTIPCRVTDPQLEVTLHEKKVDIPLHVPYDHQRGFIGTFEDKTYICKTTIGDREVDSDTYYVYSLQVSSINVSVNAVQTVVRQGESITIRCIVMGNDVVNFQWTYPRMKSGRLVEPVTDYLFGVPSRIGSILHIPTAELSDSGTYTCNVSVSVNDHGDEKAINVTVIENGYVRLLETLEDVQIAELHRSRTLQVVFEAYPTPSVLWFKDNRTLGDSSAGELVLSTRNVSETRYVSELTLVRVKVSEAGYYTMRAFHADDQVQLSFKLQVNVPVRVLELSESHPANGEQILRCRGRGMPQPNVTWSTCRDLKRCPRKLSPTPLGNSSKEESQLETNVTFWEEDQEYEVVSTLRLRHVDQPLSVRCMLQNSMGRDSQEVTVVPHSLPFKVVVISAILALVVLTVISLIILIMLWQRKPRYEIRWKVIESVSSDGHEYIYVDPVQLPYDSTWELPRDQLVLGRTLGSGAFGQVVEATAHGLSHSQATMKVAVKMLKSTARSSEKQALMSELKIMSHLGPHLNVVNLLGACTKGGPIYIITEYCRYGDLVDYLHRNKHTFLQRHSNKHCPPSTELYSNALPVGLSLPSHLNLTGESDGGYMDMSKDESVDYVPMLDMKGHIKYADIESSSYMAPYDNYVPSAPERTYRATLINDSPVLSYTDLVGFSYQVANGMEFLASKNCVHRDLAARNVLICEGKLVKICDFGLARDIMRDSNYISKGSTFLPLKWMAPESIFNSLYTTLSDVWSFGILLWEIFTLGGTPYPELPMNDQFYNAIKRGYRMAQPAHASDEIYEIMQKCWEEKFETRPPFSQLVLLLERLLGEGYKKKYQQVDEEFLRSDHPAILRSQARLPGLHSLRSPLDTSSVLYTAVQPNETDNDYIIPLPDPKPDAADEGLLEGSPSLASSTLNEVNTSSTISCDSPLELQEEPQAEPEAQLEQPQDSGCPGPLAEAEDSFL

For `O=C(NN1CCCCC1)NS(=O)(=O)c1ccc(CCNC(=O)c2[nH]c3ccccc3c2OCc2ccccc2)cc1` [NNC92-0270], the remaining activity at 12.5 µM (12.5 μM, 10% human serum, read-out: % CB (% Control Binding), Binding Media + 10% Human Serum) was 30%, the “CPM Bound, Binding Media + 10% Human Serum” value (12.5 μM, 10% human serum) was 349 CPM and the remaining activity at 12.5 µM (12.5 μM, binding media alone, read-out: % CB (% Control Binding), Binding Media) was 36%. The “CPM Bound, Binding Media” value (12.5 μM, binding media alone) was 722 CPM, the remaining activity at 25 µM (25 μM, 10% human serum, read-out: % CB (% Control Binding), Binding Media + 10% Human Serum) was 21% and the “CPM Bound, Binding Media + 10% Human Serum” value (25 μM, 10% human serum) was 244 CPM. The remaining activity at 25 µM (25 μM, binding media alone, read-out: % CB (% Control Binding), Binding Media) was 30%, the “CPM Bound, Binding Media” value (25 μM, binding media alone) was 605 CPM and the remaining activity at 50 µM (50 μM, 10% human serum, read-out: % CB (% Control Binding), Binding Media + 10% Human Serum) was 14%. For the same molecule, the “CPM Bound, Binding Media + 10% Human Serum” value (50 μM, 10% human serum) was 162 CPM, the remaining activity at 50 µM (50 μM, binding media alone, read-out: % CB (% Control Binding), Binding Media) was 23% and the “CPM Bound, Binding Media” value (50 μM, binding media alone) was 467 CPM. The “Potency for inhibiting 125I-PDGF-BB binding in 10% human serum compared to binding media alone (in words)” value (rat SMCs) was “approximately equal potency”.
